In ChEMBL document CHEMBL1201862, “PubChem BioAssay data set” (2004):
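Following 48 hours of exposure in 96-well plates, responses at five concentrations were used to interpolate endpoints linearly. At the GI50, growth is halved.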 The source made the active and inactive calls. Cut-off read from the data, not from the text of the source: active = GI50 up to about 1.1 µM and inactive = higher.

Assays:
Experiment in all cases: NCI tumour cell line growth inhibition, 48 h
786-0 = test system: 786-0
A549 = test system: A549
BT-549 = test system: BT-549
COLO 205 = test system: COLO 205
DU-145 = test system: DU-145
HOP-62 = test system: HOP-62
HT-29 = test system: HT-29
Hs-578T = test system: Hs-578T
KM12 = test system: KM12
M14 = test system: M14
MDA-N = test system: MDA-N
Malme-3M = test system: Malme-3M
NCI-H226 = test system: NCI-H226
NCI-H23 = test system: NCI-H23
NCI/ADR-RES = test system: NCI/ADR-RES
OVCAR-3 = test system: OVCAR-3
PC-3 = test system: PC-3
SW-620 = test system: SW-620
T47D = test system: T47D
U-251 = test system: U-251

| Structure (SMILES) | GI50 (786-0) | GI50 (A549) | GI50 (BT-549) | GI50 (COLO 205) | GI50 (DU-145) | GI50 (HOP-62) | GI50 (HT-29) | GI50 (Hs-578T) | GI50 (KM12) | GI50 (M14) | GI50 (MDA-N) | GI50 (Malme-3M) | GI50 (NCI-H226) | GI50 (NCI-H23) | GI50 (NCI/ADR-RES) | GI50 (OVCAR-3) | GI50 (PC-3) | GI50 (SW-620) | GI50 (T47D) | GI50 (U-251) |
| --- | --- | --- | --- | --- | --- | --- | --- | --- | --- | --- | --- | --- | --- | --- | --- | --- | --- | --- | --- | --- |
| Nc1nc(O)c2[nH]nnc2n1 [8-AZAGUANINE] | 0.292 µM (active) | 33 µM (inactive) | 0.473 µM (active) | 13.3 µM (inactive) | 0.684 µM (active) | 0.326 µM (active) | 26.1 µM (inactive) | 0.906 µM (active) | 34.1 µM (inactive) | 0.292 µM (active) | 0.308 µM (active) | 0.352 µM (active) | 0.789 µM (active) | 25.1 µM (inactive) | 1.93 µM (inactive) | 16 µM (inactive) | 0.855 µM (active) | 0.306 µM (active) | 3.44 µM (inactive) | 1.74 µM (inactive) |
| O=C(Nc1nnc(-c2ccccc2)o1)C(SC(=S)N1CCCCC1)c1ccccc1 (centres undefined) | 16.7 µM (inactive) | 17.1 µM (inactive) | 14 µM (inactive) | 31 µM (inactive) | 17.2 µM (inactive) | 18.3 µM (inactive) | 20.6 µM (inactive) | 59.8 µM (inactive) | 22.9 µM (inactive) | 12.6 µM (inactive) | 20.7 µM (inactive) | 26.2 µM (inactive) | 25.4 µM (inactive) | 12.4 µM (inactive) | 3.93 µM (inactive) | 17.3 µM (inactive) | 17.5 µM (inactive) | 31.8 µM (inactive) | 31.2 µM (inactive) | 14.4 µM (inactive) |
| CC(C)(C)c1cc(C2NC(=O)NC2=O)cc(C(C)(C)C)c1O (centres undefined) | > 10 µM (inactive) | 96.8 µM (inactive) | > 100 µM (inactive) | > 100 µM (inactive) | > 100 µM (inactive) | > 100 µM (inactive) | 46.5 µM (inactive) | 20.5 µM (inactive) | 18.8 µM (inactive) | > 100 µM (inactive) | 47 µM (inactive) | 80 µM (inactive) | > 100 µM (inactive) | 56.8 µM (inactive) | > 100 µM (inactive) | 34.1 µM (inactive) | 71.9 µM (inactive) | 53.6 µM (inactive) | 46 µM (inactive) | 39.5 µM (inactive) |
| C=CC(=O)N1C/C(=C\c2ccc(Cl)cc2)C(=O)/C(=C/c2ccc(Cl)cc2)C1 | 0.21 µM (active) | 0.356 µM (active) | 0.329 µM (active) | 0.39 µM (active) | 0.813 µM (active) | 0.317 µM (active) | 0.0989 µM (active) | 0.321 µM (active) | 0.234 µM (active) | 0.255 µM (active) | 0.214 µM (active) | 0.973 µM (active) | 0.237 µM (active) | 0.492 µM (active) | 0.436 µM (active) | 0.31 µM (active) | 0.255 µM (active) | 0.15 µM (active) | 2 µM (inactive) | 0.173 µM (active) |
| O=C(O)C(SC1=NC(=O)C2(NN1)c1ccccc1-c1ccccc12)SC1=NC(=O)C2(NN1)c1ccccc1-c1ccccc12 | > 10 µM (inactive) | > 10 µM (inactive) | > 10 µM (inactive) | > 10 µM (inactive) | > 10 µM (inactive) | > 10 µM (inactive) | > 10 µM (inactive) | > 10 µM (inactive) | > 10 µM (inactive) | > 10 µM (inactive) | > 10 µM (inactive) | > 10 µM (inactive) | > 10 µM (inactive) | > 10 µM (inactive) | > 10 µM (inactive) | > 10 µM (inactive) | > 10 µM (inactive) | > 10 µM (inactive) | 6.89 µM (inactive) | > 10 µM (inactive) |
| CCCCCCCCCCCCO[PH](=O)OCCCCCCCCCCCC | > 100 µM (inactive) | > 100 µM (inactive) | > 100 µM (inactive) | > 100 µM (inactive) | > 100 µM (inactive) | > 100 µM (inactive) | > 100 µM (inactive) | > 100 µM (inactive) | 32.2 µM (inactive) | > 100 µM (inactive) | > 100 µM (inactive) | > 100 µM (inactive) | > 100 µM (inactive) | > 100 µM (inactive) | > 100 µM (inactive) | > 100 µM (inactive) | > 100 µM (inactive) | > 100 µM (inactive) | > 100 µM (inactive) | > 100 µM (inactive) |
| CCOP(=O)(OCC)/C(C#N)=C/c1c(C)[nH]c2ccccc12 | > 100 µM (inactive) | > 100 µM (inactive) | > 100 µM (inactive) | > 100 µM (inactive) | > 100 µM (inactive) | > 100 µM (inactive) | > 100 µM (inactive) | > 100 µM (inactive) | > 100 µM (inactive) | > 100 µM (inactive) | > 100 µM (inactive) | > 100 µM (inactive) | > 100 µM (inactive) | > 100 µM (inactive) | > 100 µM (inactive) | > 100 µM (inactive) | > 100 µM (inactive) | > 100 µM (inactive) | > 100 µM (inactive) | > 100 µM (inactive) |
| N#Cc1c(N)nc(-c2ccc(Cl)cc2)c2c1-c1ccccc1S(=O)(=O)CC2 | 27.2 µM (inactive) | > 100 µM (inactive) | 27.5 µM (inactive) | > 100 µM (inactive) | 74.5 µM (inactive) | 35.7 µM (inactive) | > 100 µM (inactive) | 46.1 µM (inactive) | > 100 µM (inactive) | > 100 µM (inactive) | > 100 µM (inactive) | > 100 µM (inactive) | > 100 µM (inactive) | 66.2 µM (inactive) | 52.5 µM (inactive) | > 100 µM (inactive) | > 100 µM (inactive) | > 100 µM (inactive) | > 100 µM (inactive) | 37.3 µM (inactive) |
| CCOC(=O)c1cccc(/N=N/c2nc[nH]c2/C=C/C(=O)OC)c1 | 7.36 µM (inactive) | 39.5 µM (inactive) | 42.6 µM (inactive) | 4.39 µM (inactive) | 37.4 µM (inactive) | 6.35 µM (inactive) | 6.98 µM (inactive) | 53.5 µM (inactive) | 15.8 µM (inactive) | 13.3 µM (inactive) | 28.4 µM (inactive) | 8.71 µM (inactive) | 64.4 µM (inactive) | 36.3 µM (inactive) | 4.1 µM (inactive) | 3.15 µM (inactive) | 17.8 µM (inactive) | 6.47 µM (inactive) | 9.95 µM (inactive) | 6.73 µM (inactive) |
| CC1=NNC(=O)C1C1C(=O)NN=C(c2c[nH]c3ccccc23)C1Br (centres undefined) | > 100 µM (inactive) | 41.8 µM (inactive) | > 100 µM (inactive) | 33.8 µM (inactive) | > 100 µM (inactive) | 40.1 µM (inactive) | 35.3 µM (inactive) | 28 µM (inactive) | 16.6 µM (inactive) | 23.2 µM (inactive) | 59.8 µM (inactive) | 30.3 µM (inactive) | 35 µM (inactive) | 74.5 µM (inactive) | 47.5 µM (inactive) | 26.3 µM (inactive) | 25.5 µM (inactive) | 40.6 µM (inactive) | 42.1 µM (inactive) | 38.3 µM (inactive) |
| C=CCn1c(=O)c2ccccc2[n+]2c(C)c(C(=O)OCC)sc12 | > 100 µM (inactive) | > 100 µM (inactive) | > 100 µM (inactive) | > 100 µM (inactive) | > 100 µM (inactive) | 42.4 µM (inactive) | > 100 µM (inactive) | > 100 µM (inactive) | > 100 µM (inactive) | > 100 µM (inactive) | > 100 µM (inactive) |  | > 100 µM (inactive) | > 100 µM (inactive) | > 100 µM (inactive) | > 100 µM (inactive) | > 100 µM (inactive) | > 100 µM (inactive) | > 100 µM (inactive) | 90.2 µM (inactive) |
| CSC1=C(C(=O)Nc2ccccc2)C(N)=NC1=O | > 100 µM (inactive) | > 100 µM (inactive) | > 100 µM (inactive) | > 100 µM (inactive) | > 100 µM (inactive) |  | > 100 µM (inactive) | > 100 µM (inactive) | > 100 µM (inactive) |  | > 100 µM (inactive) | > 100 µM (inactive) | > 100 µM (inactive) | > 100 µM (inactive) | > 100 µM (inactive) |  | > 100 µM (inactive) | > 100 µM (inactive) | 92.7 µM (inactive) | > 100 µM (inactive) |
| CC(=O)c1cccc(NC(=O)C(=O)C(c2cnc3ccc([N+](=O)[O-])cc3n2)[N+](=O)[O-])c1 (centres undefined) | > 100 µM (inactive) |  | 53 µM (inactive) | 41 µM (inactive) | > 100 µM (inactive) | > 100 µM (inactive) | > 100 µM (inactive) | > 100 µM (inactive) | 54.1 µM (inactive) | 69 µM (inactive) | > 100 µM (inactive) | > 100 µM (inactive) | > 100 µM (inactive) | > 100 µM (inactive) | 95.5 µM (inactive) | > 100 µM (inactive) | 42.9 µM (inactive) | 52.2 µM (inactive) | > 100 µM (inactive) | > 100 µM (inactive) |
| COc1cccc2c1C(=N)c1c(O)c3c(c(O)c1C2=O)C[C@@](O)(C(C)=O)C[C@@H]3OC1CC(N)C(O)C(C)O1 (some centres undefined) | 0.171 µM (active) | 0.00832 µM (active) | < 0.01 µM (active) | 0.394 µM (active) | 0.00386 µM (active) | 0.125 µM (active) | 0.4 µM (active) | 0.00123 µM (active) | 0.313 µM (active) | 0.00957 µM (active) | < 0.01 µM (active) | 0.000721 µM (active) | 0.137 µM (active) | 0.00875 µM (active) | 0.000159 µM (active) |  | < 0.01 µM (active) | 0.199 µM (active) | 0.0047 µM (active) | 0.000228 µM (active) |
